# Measured values: PubChem BioAssay AID288 (DTP/NCI, 2004)
# Where “and” joins values, the source holds several entries; their conditions need not be identical. Equal entries are not always repeated. Results filed as inconclusive are left out.
# Tested on: BDF1 mice, M5076 sarcoma s.c., survival/tumor T/C
# Assay: NCI In Vivo Anticancer Drug Screen. Data for tumor model Sarcoma M5076 (subcutaneous) in B6D2F1 (BDF1) mice
# Experimental: The antitumor activity of compounds was measured in mice bearing transplantable tumors. Survival or tumor size were measured and the results are expressed as the measurement made in the treated group (T) divided by the measurement made in the vehicle treated control group (C). The tumor model used in this assay is Sarcoma M5076 (subcutaneous) in B6D2F1 (BDF1) mice
compound,measurement,setting,value
CCCCCCC(=O)O[C@H]1CC[C@H]2[C@@H]3CCC4=CC(=O)CC[C@]4(C)[C@H]3CC[C@]12C,T/C,"endpoint: mean tumor weight, dose: 15.0 mg/kg/injection, schedule: Q02DX011 (ip), vehicle: Klucel (hydroxypropylcellulose) (HPC), higher = larger tumour",43 % of control
same,T/C,"endpoint: mean tumor weight, dose: 30.0 mg/kg/injection, schedule: Q02DX011 (ip), vehicle: Klucel (hydroxypropylcellulose) (HPC), higher = larger tumour",68 % of control
same,T/C,"endpoint: median tumor weight (est.), dose: 7.5 mg/kg/injection, schedule: Q02DX011 (ip), vehicle: Klucel (hydroxypropylcellulose) (HPC), higher = larger tumour",124 % of control
same,T/C,"endpoint: median tumor weight (est.), dose: 15.0 mg/kg/injection, schedule: Q02DX011 (ip), vehicle: Klucel (hydroxypropylcellulose) (HPC), higher = larger tumour",21 % of control
same,T/C,"endpoint: median tumor weight (est.), dose: 30.0 mg/kg/injection, schedule: Q02DX011 (ip), vehicle: Klucel (hydroxypropylcellulose) (HPC), higher = larger tumour",52 % of control
O=C1c2c(O)ccc(O)c2C(=O)c2c(NCCNCCO)ccc(NCCNCCO)c21,T/C,"endpoint: median tumor weight (est.), dose: 0.25 mg/kg/injection, schedule: Q02DX011 (ip), vehicle: water, higher = larger tumour",97 % of control
same,T/C,"endpoint: median tumor weight (est.), dose: 1.0 mg/kg/injection, schedule: Q02DX011 (ip), vehicle: water, higher = larger tumour",31 % of control and 38 % of control
same,T/C,"endpoint: median tumor weight (est.), dose: 2.0 mg/kg/injection, schedule: Q02DX011 (ip), vehicle: water, higher = larger tumour",4 % of control
O=C(O)C1(C(=O)O)CCC1.[NH2-].[NH2-].[Pt+2],T/C,"endpoint: median survival time, dose: 6.25 mg/kg/injection, schedule: Q02DX030 (ip), vehicle: water, higher = longer survival",98 % of control
same,T/C,"endpoint: median survival time, dose: 17.0 mg/kg/injection, schedule: Q01DX009 (ip), vehicle: other, higher = longer survival",100 % of control
same,T/C,"endpoint: median survival time, dose: 25.0 mg/kg/injection, schedule: Q01DX009 (ip), vehicle: other, higher = longer survival",114 % of control
same,T/C,"endpoint: median survival time, dose: 25.0 mg/kg/injection, schedule: Q02DX030 (ip), vehicle: water, higher = longer survival",165 % of control
same,T/C,"endpoint: median survival time, dose: 25.92 mg/kg/injection, schedule: Q04DX005 (ip), vehicle: water, higher = longer survival",162 % of control
same,T/C,"endpoint: median survival time, dose: 38.0 mg/kg/injection, schedule: Q01DX009 (ip), vehicle: other, higher = longer survival",107 % of control
same,T/C,"endpoint: median survival time, dose: 43.2 mg/kg/injection, schedule: Q04DX005 (ip), vehicle: water, higher = longer survival",169 % of control
same,T/C,"endpoint: median survival time, dose: 50.0 mg/kg/injection, schedule: Q02DX030 (ip), vehicle: water, higher = longer survival",94 % of control
same,T/C,"endpoint: median survival time, dose: 72.0 mg/kg/injection, schedule: Q04DX005 (ip), vehicle: water, higher = longer survival",196 % of control
same,T/C,"endpoint: median tumor weight (est.), dose: 15.6 mg/kg/injection, schedule: Q04DX005 (ip), vehicle: water, higher = larger tumour",22 % of control
same,T/C,"endpoint: median tumor weight (est.), dose: 25.92 mg/kg/injection, schedule: Q04DX005 (ip), vehicle: water, higher = larger tumour",20 % of control
Cc1c(N)nc([C@H](CC(N)=O)NC[C@H](N)C(N)=O)nc1C(=O)N[C@H](C(=O)N[C@H](C)[C@@H](O)[C@H](C)C(=O)N[C@H](C(=O)NCCc1nc(-c2nc(C(=O)NCCC[S+](C)C)cs2)cs1)[C@@H](C)O)C(OC1OC(CO)C(O)C(O)C1OC1OC(CO)C(O)C(OC(N)=O)C1O)c1cnc[nH]1 (stereo partly specified),T/C,"endpoint: median survival time, dose: 1.6 mg/kg/injection, schedule: Q04DX009 (ip), vehicle: saline, higher = longer survival",108 % of control
same,T/C,"endpoint: median survival time, dose: 3.2 mg/kg/injection, schedule: Q04DX009 (ip), vehicle: saline, higher = longer survival",115 % of control
CCOC(=O)CCC1(C(=O)OC)C(=O)CCCCCCCC1C(=O)OC (stereo unspecified),T/C,"endpoint: median survival time, dose: 50.0 mg/kg/injection, schedule: Q01DX009 (ip), vehicle: saline with Tween-80, higher = longer survival",100 % of control
same,T/C,"endpoint: median survival time, dose: 100.0 mg/kg/injection, schedule: Q01DX009 (ip), vehicle: saline with Tween-80, higher = longer survival",100 % of control
same,T/C,"endpoint: median survival time, dose: 200.0 mg/kg/injection, schedule: Q01DX009 (ip), vehicle: saline with Tween-80, higher = longer survival",115 % of control
COC(=O)c1csc(C2OC(CO)C(O)C2O)n1 (stereo unspecified),T/C,"endpoint: median survival time, dose: 50.0 mg/kg/injection, schedule: Q01DX009 (ip), vehicle: saline, higher = longer survival",98 % of control
same,T/C,"endpoint: median survival time, dose: 100.0 mg/kg/injection, schedule: Q01DX009 (ip), vehicle: saline, higher = longer survival",100 % of control
same,T/C,"endpoint: median survival time, dose: 200.0 mg/kg/injection, schedule: Q01DX009 (ip), vehicle: saline, higher = longer survival",100 % of control
same,T/C,"endpoint: median tumor weight (est.), dose: 50.0 mg/kg/injection, schedule: Q01DX009 (ip), vehicle: saline, higher = larger tumour",61 % of control
same,T/C,"endpoint: median tumor weight (est.), dose: 100.0 mg/kg/injection, schedule: Q01DX009 (ip), vehicle: saline, higher = larger tumour",77 % of control
same,T/C,"endpoint: median tumor weight (est.), dose: 200.0 mg/kg/injection, schedule: Q01DX009 (ip), vehicle: saline, higher = larger tumour",85 % of control
O=c1[nH]c(=O)n(C2CC(O)C(CO)O2)cc1C(F)(F)F (stereo unspecified),T/C,"endpoint: mean tumor weight, dose: 37.5 mg/kg/injection, schedule: Q02DX011 (ip), vehicle: saline, higher = larger tumour",87 % of control
same,T/C,"endpoint: mean tumor weight, dose: 75.0 mg/kg/injection, schedule: Q02DX011 (ip), vehicle: saline, higher = larger tumour",24 % of control
same,T/C,"endpoint: mean tumor weight, dose: 150.0 mg/kg/injection, schedule: Q02DX011 (ip), vehicle: saline, higher = larger tumour",6 % of control
same,T/C,"endpoint: median tumor weight (est.), dose: 37.5 mg/kg/injection, schedule: Q02DX011 (ip), vehicle: saline, higher = larger tumour",70 % of control and 90 % of control
same,T/C,"endpoint: median tumor weight (est.), dose: 150.0 mg/kg/injection, schedule: Q02DX011 (ip), vehicle: saline, higher = larger tumour",4 % of control
OC(C1CO1)C(O)C1CO1 (stereo unspecified),T/C,"endpoint: mean tumor weight, dose: 1.0 mg/kg/injection, schedule: Q02DX011 (ip), vehicle: saline, higher = larger tumour",58 % of control
same,T/C,"endpoint: mean tumor weight, dose: 2.0 mg/kg/injection, schedule: Q02DX011 (ip), vehicle: saline, higher = larger tumour",10 % of control and 12 % of control
same,T/C,"endpoint: median survival time, dose: 2.0 mg/kg/injection, schedule: Q01DX009 (ip), vehicle: saline, higher = longer survival",122 % of control
same,T/C,"endpoint: median tumor weight (est.), dose: 1.0 mg/kg/injection, schedule: Q02DX011 (ip), vehicle: saline, higher = larger tumour",67 % of control
same,T/C,"endpoint: median tumor weight (est.), dose: 2.0 mg/kg/injection, schedule: Q01DX009 (ip), vehicle: saline, higher = larger tumour",29 % of control
same,T/C,"endpoint: median tumor weight (est.), dose: 2.0 mg/kg/injection, schedule: Q02DX011 (ip), vehicle: saline, higher = larger tumour",1 % of control and 8 % of control
